Laboratory results: patent US12252522B2, “Myokines for treating cell proliferative and metabolic diseases and disorders” (Northwestern University, priority 2019, dated 2025)

B1: metrnl (protein, UniProt Q641Q3 46-311, looked up)
Meteorin-like protein: QYSSDRCSWKGSGLTHEAHRKEVEQVYLRCAAGAVEWMYPTGALIVNLRPNTFSPARHLTVCIRSFTDSSGANIYLEKTGELRLLVPDGDGRPGRVQCFGLEQGGLFVEATPQQDIGRRTTGFQYELVRRHRASDLHELSAPCRPCSDTEVLLAVCTSDFAVRGSIQQVTHEPERQDSAIHLRVSRLYRQKSRVFEPVPEGDGHWQGRVRTLLECGVRPGHGDFLFTGHMHFGEARLGCAPRFKDFQRMYRDAQERGLNPCEVGTD
notes: specific myokine

Assays:
[1] = system: pancreatic ductal carcinoma PDX model; assay: in vivo validation of CPT on pancreatic ductal carcinoma PDX model; details: co-treatment gemcitabine 10 mg/kg + 9-ING-41 40 mg/kg, i.p. 3x a week
[2] = system: HCT116 colon cancer cells; assay: PWS imaging of HCT116 cells after chemotherapy, CPT and their combination; format: cell-based; details: celecoxib (CPT) added to oxaliplatin
[3] = system: cancer cells; assay: live cell PWS (D) and transcriptional heterogeneity of cancer cells surviving chemotherapy; format: cell-based
Excerpt: FIGS. 2A-2K. Four aspects of transcriptional heterogeneity regulation by chromatin D: (a) diversity (the relative dynamic range of expression; HT29 cells, 2445 genes), (b) intercellular heterogeneity, (c) intranetwork heterogeneity, and (d) amplification of changes in expression (ratio of changes in the expression rate of 800 significant genes induced by paclitaxel in A2780 ovarian cancer cells for high- vs. low-D cells). Predictions of a computational transcriptomics (multiscale analysis, MSA) model are shown as blue curves. (e) Chemotherapy leads to the survival of cancer cells with high D (middle-top panel; live cell PWS images of D; arrows: nuclei) and transcriptional (right-top) heterogeneity, while CPT agents (digoxin) decrease both (bottom). Left panels: MSA simulations of chromatin packing show a CPT-induced transition from a network to polymer-like packing. (f) Cells surviving chemotherapy treatment (paclitaxel (PAC); 48 h, A2780) have a larger global transcriptional space (single cell sequencing) while CPT (celecoxib) reduces it. (g) PWS images of HCT116 colon cancer cells after treatment with chemotherapy (oxaliplatin), CPT (celecoxib), and their combination. The addition of a CPT leads to >98% cancer cell death. […] Key: docetaxel (D), paclitaxel (P), oxaliplatin (0), digoxin (D), celecoxib (C), VPA (V), aspirin (A). […]

[4] = system: HT29; assay: growth of HT29 cells treated with myostatin or metrnl and oxaliplatin; format: cell-based, human; details: for growth of colorectal cancer cell line: HT29, alone; for effect in combination with oxaliplatin: HT29, combination with oxaliplatin
Excerpt: FIGS. 6A-6C. Treatment of colon cancer cells lines with myokines and oxaliplatin. (a) HCT116 cells treated with myokines, oxaplatin, and combination of myokines and oxaplatin. (b) H29 cells treated with oxoplatin (ox), myostatin, and a combination of myostatin and oxaplatin. (c) H29 cells treated with oxoplatin (ox), metrnl, and a combination of metrnl and oxaplatin.
Next, we treated colorectal cancer cell lines HCT116 and HT29 with a myokine fraction and the specific myokines myostain and metrnl either by themselves or in combination with oxaliplatin. […] (See FIG. 6).

| Molecule | growth of colorectal cancer cell line [4] | effect in combination with oxaliplatin [4] | further results |
| --- | --- | --- | --- |
| Cn1cc(C2=C(c3coc4ccc(F)cc34)C(=O)NC2=O)c2cc3c(cc21)OCO3 [9-ING-41] | – | – | tumor volume relative to initial size [1]: < 4 % of the initial size |
| Cc1ccc(-c2cc(C(F)(F)F)nn2-c2ccc(S(N)(=O)=O)cc2)cc1 [celecoxib] | – | – | cancer cell death [2]: > 98% |
| C[C@H]1O[C@@H](O[C@H]2[C@@H](O)C[C@H](O[C@H]3[C@@H](O)C[C@H](O[C@H]4CC[C@@]5(C)[C@H](CC[C@@H]6[C@@H]5C[C@@H](O)[C@]5(C)[C@@H](C7=CC(=O)OC7)CC[C@]65O)C4)O[C@@H]3C)O[C@@H]2C)C[C@H](O)[C@@H]1O [digoxin] | – | – | chromatin packing scaling D [3]: decrease both |
| myostatin [myostain] | reduced the growth | synergistic effect | – |
| B1 | reduced the growth | synergistic effect | – |
